Experimental data reported in patent publication US20100196907A1, “MARKERS TO PREDICT AND MONITOR RESPONSE TO AURORA KINASE B INHIBITOR THERAPY” (ABBOTT LABORATORIES, priority 2009, published 2010).

What was measured:
cell line panel = experiment: 7-day colony formation or viability, cell line panel; assay type: cell-based, human
Experimental: (§1) SW620^ABCB1/3 and the respective parental cell lines were washed and 500 cells/well were seeded into six-well plates in drug-free medium. Then, 24 hours later, compounds were diluted in DMEM or RPMI, added to the cells, which were cultured at 37° C. for 7-10 days. Cells were then fixed and stained with 0.2% crystal violet to visualize and count colonies.

HCT-15 = experiment: colony formation, HCT-15; assay type: cell-based, human
SW620^ABCB1/3 = experiment: colony formation, SW620^ABCB1/3; assay type: cell-based, human
Experimental: as §1

AsPC1 = experiment: colony formation, AsPC1; assay type: cell-based, human
[1] = system: DoHH-2 B-cell lymphoma xenografts; experiment: xenograft growth, DoHH-2; assay type: in vivo, mice
[2] = system: HCT-15 colon carcinoma xenografts; experiment: xenograft growth, HCT-15; assay type: in vivo, mice
HCT116 = experiment: xenograft growth, HCT116; assay type: in vivo, mice
[3] = human plasma; cited from earlier work
bone marrow = conditions: cited from earlier work
SW620^ABCB1/3 cells [4] = experiment: histone H3 phosphorylation immunoblot, SW620^ABCB1/3; assay type: cell-based, human
Experimental: (§2) SW620 and SW620^ABCB1/3 cells were washed and allowed to grow in drug-free medium overnight. […] The lysates were then probe-sonicated for 10 seconds then clarified by centrifugation at 15,000 g for 15 minutes at 4° C. After treatment with SDS-sample buffer, protein extracts were resolved on NuPAGE Bis-Tris 4-12% gels (Invitrogen (Carlsbad, Calif.)). Samples were electrotransferred to PVDF membranes (Invitrogen (Carlsbad, Calif.)), incubated with primary antibody overnight, and developed using Pierce Dura-Signal chemiluminescence reagents (Pierce, Rockford, Ill.), or Odyssey infrared imaging system from LI-COR Biosciences (Lincoln, Nebr.).

SW620^ABCB1/3 tumors = experiment: intratumor pharmacokinetics, SW620^ABCB1/3 xenografts; assay type: in vivo, mice
Experimental: (§3) C.B.-17 scid-bg (scid-bg) or C.B.-17 scid (scid) mice were obtained from Charles River Laboratories (Wilmington, Mass., USA) at 5-6 weeks of age and used for studies when greater than 8 weeks of age and/or about 20 grams in size. All animal studies were conducted in a specific pathogen-free environment in accordance with the Internal Institutional Animal Care and Use Committee (IACUC), accredited by the American Association of Laboratory Animal Care under conditions that meet or exceed the standards set by the United States Department of Agriculture Animal Welfare Act, Public Health Service policy on humane care and use of animals and the NIH guide on laboratory animal welfare. Overt signs of dehydration, lack of grooming, lethargy, greater than 15% weight loss as well as tumor volume greater then 20% body weight were used to determine tumor end point. SW620 cell lines were obtained from the ATCC (Manassas, Va.) and cultured according to their recommendations without antibiotics and routinely tested for Mycoplasma and confirmed to be microbe-free by infectious microbe PCR amplification test (IMPACT; Missouri Research Animal Diagnostic Laboratory, Columbia, Mo.) prior to in vivo inoculation. […] Two bisecting diameters were measured with calipers and tumor volumes were estimated from the formula: (length×width^2)/2. […]

SW620 tumors = experiment: intratumor pharmacokinetics, SW620 xenografts; assay type: in vivo, mice; conditions: single i.p. 100 mg kg^−1
Experimental: as §3

[5] = system: SW620 colon carcinoma cells; experiment: selection of SW620 cells in 1 μM AZD1152 HQPA; assay type: cell-based, human; conditions: after 5 passages
Experimental: All cells were maintained at 37° C. in 5% CO2. […] Less than 0.01% of cells survived this treatment after 5 passages (data not shown). […] In the drug-resistant SW620 derivative (hereafter referred to as SW620^ABCB1/3), ABCB1, which encodes MDR1, was the most highly overexpressed gene on the array, and was identified by two distinct probe sets (FIG. 1A, inset). […] Among the gene set that encodes known small molecule transporters, ABCB1 and ABCB4 are the only two that show highly differential expression (FIG. 1A). The apparent co-upregulation of ABCB1 and ABCB4 was curious given that these genes lie juxtaposed within a common genomic locus on the long arm of chromosome 7 (7q21.1).

SW620 xenografts = experiment: tumor histone H3 phosphorylation, SW620 xenografts; assay type: in vivo, mice
Experimental: as §2, with “Nebr.). C.B.-17 scid-bg (scid-bg) or C.B.-17 scid (scid) mice were obtained from Charles River Laboratories (Wilmington, Mass., USA) at 5-6 weeks of age and used for studies when greater than 8 weeks of age and/or about 20 grams in size. […] Two bisecting diameters were measured with calipers and tumor volumes were estimated from the formula: (length×width^2)/2. […]” for “Nebr.).”

SW620^ABCB1/3 xenografts = experiment: tumor histone H3 phosphorylation, SW620^ABCB1/3 xenografts; assay type: in vivo, mice
Experimental: as §2, with “Nebr.). C.B.-17 scid-bg (scid-bg) or C.B.-17 scid (scid) mice were obtained from Charles River Laboratories (Wilmington, Mass., USA) at 5-6 weeks of age and used for studies when greater than 8 weeks of age and/or about 20 grams in size. […] Two bisecting diameters were measured with calipers and tumor volumes were estimated from the formula: (length×width^2)/2. […]” for “Nebr.).”

SW620^ABCB1/3 cells [6] = experiment: intracellular drug concentration by LC-MS; assay type: in vitro ADME, human; conditions: 1 μM for 4 hours
Experimental: SW620 and SW620^ABCB1/3 cells were washed and allowed to grow in drug-free medium overnight. […] Cytosolic drug accumulation was determined by LC-MS analysis. Briefly, cells were rinsed once with PBS and extracted in cell lysis buffer. The medium, PBS wash, and cell lysate were treated with 2 volumes of acidified MeOH. Crude whole-cell lysates were then clarified by centrifugation at 15000 g for 15 minutes at 4° C. yielding an insoluble cell pellet and cytosol. The insoluble cell pellet was diluted 1:10 with 50% acetonitrile and centrifuged at 11,000 g for 5 minutes.

[7] = system: panel of 50 other kinases; conditions: cited from earlier work
SW620 cells = experiment: histone H3 phosphorylation immunoblot, SW620; assay type: cell-based, human
Experimental: as §2

For `O=C(O)c1ccc(Nc2ncc3c(n2)-c2ccc(Cl)cc2C(c2c(F)cccc2F)=NC3)cc1` [MLN8054, 4-{[9-choloro-7-(2,6-difluorophenyl)-5H-pyrimido[5,4-D][2]benzazepin-2-yl]amino}-benzoic acid], the “activity profile in the cell line panel” value (cell line panel; sensitive vs ABCB1-overexpressing lines) was “No apparent loss in potency”.
For `CC(=O)O[C@H]1C(=O)[C@@]2(C)[C@H]([C@H](OC(=O)c3ccccc3)[C@]3(O)C[C@H](OC(=O)[C@H](O)[C@@H](NC(=O)c4ccccc4)c4ccccc4)C(C)=C1C3(C)C)[C@]1(OC(C)=O)CO[C@@H]1C[C@@H]2O` [paclitaxel], the relative sensitivity (HCT-15) was “relatively insensitive”, the relative sensitivity (SW620^ABCB1/3) was “relatively insensitive” and the relative sensitivity (AsPC1) was “not AsPC1 were relatively insensitive”.
In the case of `Cc1cc(Nc2cc(N3CCN(C)CC3)nc(Sc3ccc(NC(=O)C4CC4)cc3)n2)[nH]n1` [VX-680, cyclopropane carboxylic acid {4-[4-(4-methyl-piperazin-1-yl)-6-(5-methyl-2H-pyrazol-3-ylamino)-pyrimidin-2-ylsulphanyl]-phenyl}-amide], the tumor growth inhibition [1] is reported as “significant tumor growth inhibition”, the “xenograft growth under treatment” value [2] is reported as “unabated” and the tumor growth inhibition (HCT116) is reported as “significant tumor growth inhibition”.
In the case of `CCN(CCCOc1ccc2c(Nc3cc(CC(=O)Nc4cccc(F)c4)n[nH]3)ncnc2c1)CCOP(=O)(O)O` [AZD1152, 2-[[3-({4-[(5-{2-[(3-Fluorophenyl)amino]-2-oxoethyl}-1H-pyrazol-3-yl)amino]-quinazolin-7-yl}oxy)propyl](ethyl)amino)ethyl dihydrogen phosphate], the “conversion of prodrug to active drug” value [3] is given as “rapidly converted to the active drug”, the reversibility of myelosuppression (bone marrow; following cessation of AZD1152 treatment) is given as “fully reversible” and the myelosuppression (bone marrow; secondary to inhibition of proliferation of the bone marrow) is given as “transient myelosuppression”.
In the case of `C/C=C/C[C@@H](C)C(=O)[C@H]1C(=O)N[C@@H](C(C)C)C(=O)N(C)CC(=O)N(C)[C@@H](CC(C)C)C(=O)N[C@@H](C(C)C)C(=O)N(C)[C@@H](CC(C)C)C(=O)N[C@@H](C)C(=O)N[C@H](C)C(=O)N(C)[C@@H](CC(C)C)C(=O)N(C)[C@@H](CC(C)C)C(=O)N(C)[C@@H](C(C)C)C(=O)N1C` [PSC-833], the “reversal of resistance to AZD1152 HQPA” value (SW620^ABCB1/3 cells [4]; 1 μM PSC-833 for 2 hours prior to AZD1152 HQPA) is reported as “effective in reversing the resistance”.
With `CCN(CCO)CCCOc1ccc2c(Nc3cc(CC(=O)Nc4cccc(F)c4)[nH]n3)ncnc2c1` [AZD1152 HQPA] the “period of tumor concentration above threshold” value (SW620^ABCB1/3 tumors; SW620^ABCB1/3 tumors, single i.p. 100 mg kg^−1) was ~6 h, the “overall tumor AUC compared to the parental cohort” value (SW620^ABCB1/3 tumors; single IP administration, 24-hour period post-dose) was “reduction in the overall tumor AUC” and the “intrinsic potency (histone H3 phosphorylation)” value (SW620^ABCB1/3 cells [4]; SW620^ABCB1/3) was 2000 nM. The “more drug required to inhibit histone H3 phosphorylation than the parental line” value (SW620^ABCB1/3 cells [4]; SW620^ABCB1/3 vs parental SW620, 90 minutes) was “approximately 100 fold”, the IC50 (HCT-15; Homo sapiens) was 1400 nM and the “period of tumor concentration above threshold” value (SW620 tumors) was “at least 24 hours”. For the same compound, the IC50 (cell line panel; Homo sapiens, most (sensitive) cell lines of the panel) was 4 to 15 nM, the “cells that survived treatment” value [5] was “Less than 0.01%” and the IC50 (SW620^ABCB1/3; Homo sapiens) was 2000 nM. For the same compound, the “minimum threshold intratumor concentration to inhibit histone H3 phosphorylation” value (SW620 xenografts; SW620 xenografts, potency x fold loss in 50% (v/v) mouse plasma) was 0.1 µM, the “inhibition of Aurora B (histone H3 phosphorylation) in tumors” value (SW620 xenografts; parental SW620 xenografts, single dose 100 mg kg^−1 i.p.) was “Sustained inhibition” and the “inhibition of histone H3 phosphorylation in tumors” value (SW620^ABCB1/3 xenografts; SW620^ABCB1/3 tumors, single dose 100 mg kg^−1 i.p.) was “transient inhibition”. The “minimum threshold intratumor concentration to inhibit histone H3 phosphorylation” value (SW620^ABCB1/3 xenografts; SW620^ABCB1/3 xenografts, potency x fold loss in 50% (v/v) mouse plasma) was 10 µM, the “drug in the cytosol compared to parental SW620 cells” value (SW620^ABCB1/3 cells [6]) was “Significantly less drug” and the “activity against a panel of 50 other kinases” value [7] was “inactive”. The “intrinsic potency (histone H3 phosphorylation)” value (SW620 cells) was 20 nM.
